Test results: ChEMBL document CHEMBL1201861, “Genomics of Drug Sensitity in Cancer screening data, Wellcome Trust Sanger Institute”
pIC50: −log10 of the molar value.

Experiments:
COLO-741 = assay: cells; assay type: functional, cell-based; settings: Homo sapiens
Description: SANGER: Inhibition of human COLO-741 cell growth in a cell viability assay.

CP50-MEL-B = assay: cells; assay type: functional, cell-based; settings: Homo sapiens;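 note: growth inhibition of the human cell line, measured with a cell viability read-out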
Description: SANGER: Inhibition of human CP50-MEL-B cell growth in a cell viability assay.

DU-145 = assay: cells; assay type: functional, cell-based; settings: Homo sapiens
Description: SANGER: Inhibition of human DU-145 cell growth in a cell viability assay.

Daudi = assay: cells; assay type: functional, cell-based; settings: Homo sapiens;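 note: growth inhibition of Daudi cells, read out by a viability assay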
Description: SANGER: Inhibition of human Daudi cell growth in a cell viability assay.

DoTc2-4510 = assay: cells; assay type: functional, cell-based; settings: Homo sapiens
EB-3 = assay: cells; assay type: functional, cell-based; settings: Homo sapiens;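 note: human EB-3 cells, growth inhibition read out via a cell viability assay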
Description: SANGER: Inhibition of human EB-3 cell growth in a cell viability assay.

ESS-1 = assay: cells; assay type: functional, cell-based; settings: Homo sapiens;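 note: growth inhibition of human ESS-1 cells, read out by a cell viability assay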
Description: SANGER: Inhibition of human ESS-1 cell growth in a cell viability assay.

GCT = assay: cells; assay type: functional, cell-based; settings: Homo sapiens;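 note: GCT cell line proliferation inhibition, read out with a cell viability assay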
Description: SANGER: Inhibition of human GCT cell growth in a cell viability assay.

GP5d = assay: cells; assay type: functional, cell-based; settings: Homo sapiens;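 note: growth inhibition of human GP5d cells, read out with a cell viability assay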
Description: SANGER: Inhibition of human GP5d cell growth in a cell viability assay.

HCC1937 = assay: cells; assay type: functional, cell-based; settings: Homo sapiens;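 note: growth inhibition measured with a cell viability read-out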
Description: SANGER: Inhibition of human HCC1937 cell growth in a cell viability assay.

HCC38 = assay: cells; assay type: functional, cell-based; settings: Homo sapiens;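 note: cell viability assay on the human HCC38 cell line, with IC50 marking the concentration that inhibits cell growth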
Description: SANGER: Inhibition of human HCC38 cell growth in a cell viability assay.

HCT-116 = assay: cells; assay type: functional, cell-based; settings: Homo sapiens
Description: SANGER: Inhibition of human HCT-116 cell growth in a cell viability assay.

HOP-92 = assay: cells; assay type: functional, cell-based; settings: Homo sapiens;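 note: cell viability readout, with IC50 reflecting inhibition of HOP-92 cell growth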
Description: SANGER: Inhibition of human HOP-92 cell growth in a cell viability assay.

HOS = assay: cells; assay type: functional, cell-based; settings: Homo sapiens;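 note: growth inhibition of human HOS cells, read out with a cell viability assay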
Description: SANGER: Inhibition of human HOS cell growth in a cell viability assay.

HT-1080 = assay: cells; assay type: functional, cell-based; settings: Homo sapiens
Description: SANGER: Inhibition of human HT-1080 cell growth in a cell viability assay.

HT55 = assay: cells; assay type: functional, cell-based; settings: Homo sapiens;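 note: cell viability readout measuring growth inhibition of human HT55 cells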
Description: SANGER: Inhibition of human HT55 cell growth in a cell viability assay.

HuCCT-1 = assay: cells; assay type: functional, cell-based, HuCCT1; settings: Homo sapiens;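 note: growth inhibition of HuCCT-1 cells, read out by a cell viability assay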
Description: SANGER: Inhibition of human HuCCT1 cell growth in a cell viability assay.

HuP-T3 = assay: cells; assay type: functional, cell-based; settings: Homo sapiens;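 note: HuP-T3 cell growth inhibition, read out with a cell viability assay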
Description: SANGER: Inhibition of human HuP-T3 cell growth in a cell viability assay.

IGR-1 = assay: cells; assay type: functional, cell-based; settings: Homo sapiens;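 note: growth inhibition of human IGR-1 cells, read out with a cell viability assay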
Description: SANGER: Inhibition of human IGR-1 cell growth in a cell viability assay.

KYSE-510 = assay: cells; assay type: functional, cell-based; settings: Homo sapiens;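 note: cell viability readout used to measure how strongly growth of the cell line is suppressed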
Description: SANGER: Inhibition of human KYSE-510 cell growth in a cell viability assay.

LC-1F = assay: cells; assay type: functional, cell-based; settings: Homo sapiens;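 note: growth inhibition of human LC-1F cells, read out with a cell viability assay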
Description: SANGER: Inhibition of human LC-1F cell growth in a cell viability assay.

MCF7 = assay: cells; assay type: functional, cell-based; settings: Homo sapiens;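 note: growth inhibition of human MCF7 cells, read out with a cell viability assay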
Description: SANGER: Inhibition of human MCF7 cell growth in a cell viability assay.

MFE-280 = assay: cells; assay type: functional, cell-based; settings: Homo sapiens;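 note: growth inhibition of MFE-280 cells, determined with a cell viability readout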
Description: SANGER: Inhibition of human MFE-280 cell growth in a cell viability assay.

MKN-1 = assay: cells; assay type: functional, cell-based; settings: Homo sapiens;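 note: growth inhibition of human MKN1 cells, read out by a cell viability measurement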
Description: SANGER: Inhibition of human MKN1 cell growth in a cell viability assay.

MKN-7 = assay: cells; assay type: functional, cell-based; settings: Homo sapiens;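 note: growth inhibition of MKN-7 cells, read out with a cell viability assay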
Description: SANGER: Inhibition of human MKN7 cell growth in a cell viability assay.

MRK-nu-1 = assay: cells; assay type: functional, cell-based; settings: Homo sapiens;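 note: cell viability assay measuring growth suppression of human MRK-nu-1 cells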
Description: SANGER: Inhibition of human MRK-nu-1 cell growth in a cell viability assay.

MeWo = assay: cells; assay type: functional, cell-based; settings: Homo sapiens;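 note: growth inhibition of MeWo cells, determined by a cell viability readout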
Description: SANGER: Inhibition of human Mewo cell growth in a cell viability assay.

NALM-6 = assay: cells; assay type: functional, cell-based; settings: Homo sapiens;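 note: growth inhibition of NALM-6 cells, read out with a cell viability assay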
Description: SANGER: Inhibition of human NALM-6 cell growth in a cell viability assay.

NCI-H1437 = assay: cells; assay type: functional, cell-based; settings: Homo sapiens;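 note: growth inhibition of human NCI-H1437 cells, read out by a cell viability assay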
Description: SANGER: Inhibition of human NCI-H1437 cell growth in a cell viability assay.

NCI-H1573 = assay: cells; assay type: functional, cell-based; settings: Homo sapiens;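 note: growth inhibition of NCI-H1573 cells, read out with a cell viability assay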
Description: SANGER: Inhibition of human NCI-H1573 cell growth in a cell viability assay.

NCI-H1755 = assay: cells; assay type: functional, cell-based; settings: Homo sapiens;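 note: cell viability readout used to measure growth inhibition of NCI-H1755 cells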
Description: SANGER: Inhibition of human NCI-H1755 cell growth in a cell viability assay.

NCI-H2228 = assay: cells; assay type: functional, cell-based; settings: Homo sapiens;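 note: growth inhibition of human NCI-H2228 cells, read out by a cell viability assay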
Description: SANGER: Inhibition of human NCI-H2228 cell growth in a cell viability assay.

NCI-H2405 = assay: cells; assay type: functional, cell-based; settings: Homo sapiens;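 note: growth inhibition of the human cell line, read out with a cell viability assay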
Description: SANGER: Inhibition of human NCI-H2405 cell growth in a cell viability assay.

NCI-H28 = assay: cells; assay type: functional, cell-based; settings: Homo sapiens;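 note: growth inhibition of human NCI-H28 cells, read out as cell viability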
Description: SANGER: Inhibition of human NCI-H28 cell growth in a cell viability assay.

NCI-H460 = assay: cells; assay type: functional, cell-based; settings: Homo sapiens;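 note: cell viability assay scoring growth inhibition of human NCI-H460 cells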
Description: SANGER: Inhibition of human NCI-H460 cell growth in a cell viability assay.

NCI-H596 = assay: cells; assay type: functional, cell-based; settings: Homo sapiens;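 note: growth inhibition of NCI-H596 cells, read out with a cell viability assay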
Description: SANGER: Inhibition of human NCI-H596 cell growth in a cell viability assay.

NCI-H650 = assay: cells; assay type: functional, cell-based; settings: Homo sapiens;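 note: growth inhibition of NCI-H650 cells, read out by a viability assay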
Description: SANGER: Inhibition of human NCI-H650 cell growth in a cell viability assay.

NCI-H661 = assay: cells; assay type: functional, cell-based; settings: Homo sapiens;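 note: cell viability assay read-out, IC50 being the concentration that inhibits growth of the cells by half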
Description: SANGER: Inhibition of human NCI-H661 cell growth in a cell viability assay.

OAW-28 = assay: cells; assay type: functional, cell-based; settings: Homo sapiens;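 note: growth inhibition of OAW-28 cells, read out with a cell viability assay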
Description: SANGER: Inhibition of human OAW-28 cell growth in a cell viability assay.

RVH-421 = assay: cells; assay type: functional, cell-based; settings: Homo sapiens
Description: SANGER: Inhibition of human RVH-421 cell growth in a cell viability assay.

SF-295 = assay: cells; assay type: functional, cell-based; settings: Homo sapiens;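 note: growth inhibition of SF-295 cells, read out with a cell viability assay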
Description: SANGER: Inhibition of human SF295 cell growth in a cell viability assay.

SK-LU-1 = assay: cells; assay type: functional, cell-based; settings: Homo sapiens;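 note: cell viability assay measuring growth inhibition of human SK-LU-1 cells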
Description: SANGER: Inhibition of human SK-LU-1 cell growth in a cell viability assay.

SK-MEL-28 = assay: cells; assay type: functional, cell-based; settings: Homo sapiens;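 note: growth inhibition of human SK-MEL-28 cells, read out with a cell viability assay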
Description: SANGER: Inhibition of human SK-MEL-28 cell growth in a cell viability assay.

SU-DHL-1 = assay: SANGER: Inhibition of human SU-DHL-1 cell growth in a cell viability assay.; assay type: functional, cell-based
SW1417 = assay: cells; assay type: functional, cell-based; settings: Homo sapiens;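 note: growth inhibition of human SW1417 cells, read out with a cell viability assay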
Description: SANGER: Inhibition of human SW1417 cell growth in a cell viability assay.

SW1573 = assay: cells; assay type: functional, cell-based; settings: Homo sapiens;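 note: growth inhibition of SW1573 cells, read out with a cell viability assay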
Description: SANGER: Inhibition of human SW1573 cell growth in a cell viability assay.

SW1990 = assay: cells; assay type: functional, cell-based; settings: Homo sapiens
Description: SANGER: Inhibition of human SW1990 cell growth in a cell viability assay.

SAOS-2 = assay: cells; assay type: functional, cell-based; settings: Homo sapiens;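 note: growth inhibition of human Saos-2 cells determined by a cell viability assay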
Description: SANGER: Inhibition of human Saos-2 cell growth in a cell viability assay.

T-24 = assay: cells; assay type: functional, cell-based; settings: Homo sapiens;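 note: growth inhibition of T-24 cells, read out with a cell viability assay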
Description: SANGER: Inhibition of human T-24 cell growth in a cell viability assay.

TALL-1 = assay: cells; assay type: functional, cell-based; settings: Homo sapiens;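 note: growth inhibition of cultured human TALL-1 cells, read out by a cell viability assay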
Description: SANGER: Inhibition of human TALL-1 cell growth in a cell viability assay.

647-V = assay: cells; assay type: functional, cell-based; settings: Homo sapiens;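 note: growth inhibition of 647-V cells, read out with a cell viability assay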
Description: SANGER: Inhibition of human 647-V cell growth in a cell viability assay.

8305C = assay: cells; assay type: functional, cell-based; settings: Homo sapiens
Description: SANGER: Inhibition of human 8305C cell growth in a cell viability assay.

A204 = assay: cells; assay type: functional, cell-based; settings: Homo sapiens;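 note: growth inhibition of human A204 cells, read out with a cell viability assay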
Description: SANGER: Inhibition of human A204 cell growth in a cell viability assay.

ACHN = assay: cells; assay type: functional, cell-based; settings: Homo sapiens;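 note: cell viability read-out used to gauge how strongly growth of human ACHN cells is suppressed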
Description: SANGER: Inhibition of human ACHN cell growth in a cell viability assay.

BC1 cell line = assay: SANGER: Inhibition of human BC-1 cell growth in a cell viability assay.; assay type: functional, cell-based
BC-3 = assay: cells; assay type: functional, cell-based; settings: Homo sapiens;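 note: cell viability assay measuring growth inhibition of human BC-3 cells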
Description: SANGER: Inhibition of human BC-3 cell growth in a cell viability assay.

BHY = assay: cells; assay type: functional, cell-based; settings: Homo sapiens;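 note: cell growth inhibition read out by a viability assay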
Description: SANGER: Inhibition of human BHY cell growth in a cell viability assay.

BPH-1 = assay: cells; assay type: functional, cell-based; settings: Homo sapiens;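 note: cell viability assay measuring growth inhibition of human BPH-1 cells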
Description: SANGER: Inhibition of human BPH-1 cell growth in a cell viability assay.

TUR = assay: cells; assay type: functional, cell-based; settings: Homo sapiens;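 note: growth inhibition of human TUR cells, read out with a cell viability assay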
Description: SANGER: Inhibition of human TUR cell growth in a cell viability assay.

UACC-62 = assay: cells; assay type: functional, cell-based; settings: Homo sapiens
Description: SANGER: Inhibition of human UACC-62 cell growth in a cell viability assay.

UACC-893 = assay: cells; assay type: functional, cell-based; settings: Homo sapiens
Description: SANGER: Inhibition of human UACC-893 cell growth in a cell viability assay.

VM-CUB-1 = assay: cells; assay type: functional, cell-based; settings: Homo sapiens
Description: SANGER: Inhibition of human VM-CUB-1 cell growth in a cell viability assay.

CHP-126 = assay: cells; assay type: functional, cell-based; settings: Homo sapiens
Description: SANGER: Inhibition of human CHP-126 cell growth in a cell viability assay.

COLO-678 = assay: cells; assay type: functional, cell-based; settings: Homo sapiens
Description: SANGER: Inhibition of human COLO-678 cell growth in a cell viability assay.

CC(O)(CS(=O)(=O)c1ccc(F)cc1)C(=O)Nc1ccc(C#N)c(C(F)(F)F)c1 (stereo not drawn) [BICALUTAMIDE]
pIC50 (COLO-741): < 5.99 | pIC50 (CP50-MEL-B): < 5.99 | pIC50 (DU-145): < 5.99 | pIC50 (Daudi): < 5.99 | pIC50 (DoTc2-4510): < 5.99 | pIC50 (EB-3): < 5.99 | pIC50 (ESS-1): < 5.99 | pIC50 (GCT): < 5.99 | pIC50 (GP5d): < 5.99 | pIC50 (HCC1937): < 5.99 | pIC50 (HCC38): < 5.99 | pIC50 (HCT-116): < 5.99 | pIC50 (HOP-92): < 5.99 | pIC50 (HOS): < 5.99 | pIC50 (HT-1080): < 5.99 | pIC50 (HT55): < 5.99 | pIC50 (HuCCT-1): < 5.99 | pIC50 (HuP-T3): < 5.99 | pIC50 (IGR-1): < 5.99 | pIC50 (KYSE-510): < 5.99 | pIC50 (LC-1F): < 5.99 | pIC50 (MCF7): < 5.99 | pIC50 (MFE-280): < 5.99 | pIC50 (MKN-1): < 5.99 | pIC50 (MKN-7): < 5.99 | pIC50 (MRK-nu-1): < 5.99 | pIC50 (MeWo): < 5.99 | pIC50 (NALM-6): < 5.99 | pIC50 (NCI-H1437): < 5.99 | pIC50 (NCI-H1573): < 5.99 | pIC50 (NCI-H1755): < 5.99 | pIC50 (NCI-H2228): < 5.99 | pIC50 (NCI-H2405): < 5.99 | pIC50 (NCI-H28): < 5.99 | pIC50 (NCI-H460): < 5.99 | pIC50 (NCI-H596): < 5.99 | pIC50 (NCI-H650): < 5.99 | pIC50 (NCI-H661): < 5.99 | pIC50 (OAW-28): < 5.99 | pIC50 (RVH-421): < 5.99 | pIC50 (SF-295): < 5.99 | pIC50 (SK-LU-1): < 5.99 | pIC50 (SK-MEL-28): < 5.99 | pIC50 (SU-DHL-1): < 5.99 | pIC50 (SW1417): < 5.99 | pIC50 (SW1573): < 5.99 | pIC50 (SW1990): < 5.99 | pIC50 (SAOS-2): < 5.99 | pIC50 (T-24): < 5.99 | pIC50 (TALL-1): < 5.99 | pIC50 (647-V): < 5.99 | pIC50 (8305C): < 5.99 | pIC50 (A204): < 5.99 | pIC50 (ACHN): < 5.99 | pIC50 (BC1 cell line): < 5.99 | pIC50 (BC-3): < 5.99 | pIC50 (BHY): < 5.99 | pIC50 (BPH-1): < 5.99 | pIC50 (TUR): < 5.99 | pIC50 (UACC-62): < 5.99 | pIC50 (UACC-893): < 5.99 | pIC50 (VM-CUB-1): < 5.99 | pIC50 (CHP-126): < 5.99 | pIC50 (COLO-678): < 5.99

CCNC(=O)c1noc(-c2cc(C(C)C)c(O)cc2O)c1-c1ccc(CN2CCOCC2)cc1 [LUMINESPIB]
pIC50 (COLO-741): 7.26 | pIC50 (CP50-MEL-B): 7.08 | pIC50 (DU-145): 7.89 | pIC50 (Daudi): 7.47 | pIC50 (DoTc2-4510): 7.67 | pIC50 (EB-3): 6.65 | pIC50 (ESS-1): 7.10 | pIC50 (GCT): 7.38 | pIC50 (GP5d): 7.56 | pIC50 (HCC1937): 7.35 | pIC50 (HCC38): 7.42 | pIC50 (HCT-116): 6.82 | pIC50 (HOP-92): 7.11 | pIC50 (HOS): 8.86 | pIC50 (HT-1080): 7.65 | pIC50 (HT55): < 6.59 | pIC50 (HuCCT-1): 7.53 | pIC50 (HuP-T3): 7.78 | pIC50 (IGR-1): 7.69 | pIC50 (KYSE-510): 7.84 | pIC50 (LC-1F): < 6.59 | pIC50 (MCF7): 8.48 | pIC50 (MFE-280): < 6.59 | pIC50 (MKN-1): 7.31 | pIC50 (MKN-7): < 6.59 | pIC50 (MRK-nu-1): 7.64 | pIC50 (MeWo): < 6.59 | pIC50 (NALM-6): 9.07 | pIC50 (NCI-H1437): 7.20 | pIC50 (NCI-H1573): 6.75 | pIC50 (NCI-H1755): 6.86 | pIC50 (NCI-H2228): 7.97 | pIC50 (NCI-H2405): 7.54 | pIC50 (NCI-H28): < 6.59 | pIC50 (NCI-H460): 7.87 | pIC50 (NCI-H596): 6.76 | pIC50 (NCI-H650): 7.67 | pIC50 (NCI-H661): 6.95 | pIC50 (OAW-28): < 6.59 | pIC50 (RVH-421): 7.71 | pIC50 (SF-295): 7.76 | pIC50 (SK-LU-1): 7.73 | pIC50 (SK-MEL-28): < 6.59 | pIC50 (SU-DHL-1): 7.16 | pIC50 (SW1417): < 6.59 | pIC50 (SW1573): 7.24 | pIC50 (SW1990): 7.56 | pIC50 (SAOS-2): 7.12 | pIC50 (T-24): 7.27 | pIC50 (TALL-1): < 6.59 | pIC50 (647-V): 6.83 | pIC50 (8305C): 7.51 | pIC50 (A204): 7.67 | pIC50 (ACHN): 7.63 | pIC50 (BC1 cell line): 7.47 | pIC50 (BC-3): 7.52 | pIC50 (BHY): 7.72 | pIC50 (BPH-1): 7.99 | pIC50 (TUR): 7.11 | pIC50 (UACC-62): 6.92 | pIC50 (UACC-893): 7.23 | pIC50 (VM-CUB-1): 7.27 | pIC50 (CHP-126): 7.12 | pIC50 (COLO-678): < 6.59
